Test system: Bacillus substilis (ATCC6633)
Assay: Inhibition circle (penicillin cup) measurement of antimicrobial activity changed by viscoelastic substance
Type: cell-based, Bacillus subtilis
Procedure: The activity of an antimicrobial agent changes depending upon a type of viscoelastic substance. Such a change was measured by using Bacillus substilis (ATCC6633 referred to as “B subtilis”) and the following viscoelastic substances: First, B. subtilis (0.1 mL of 1.4×10^8 CFU/ML) was spread on a 4% heart infusion medium. Subsequently, a penicillin cup was placed on the medium, and a test solution was poured in the cup. As test solutions, the following groups were used. 0.1 mL of an antimicrobial agent was added to a penicillin cup. Five concentrations from […] were prepared for each antimicrobial agent; 0.1 mL of a viscoelastic substance was added to a penicillin cup; After 0.1 mL of a viscoelastic substance was added to a penicillin cup and allowed to stand still and then 0.1 mL of 5 or 2.5 μg/mL antimicrobial agent was gently added to the viscoelastic substance layer; and 0.1 mL of a viscoelastic substance and 0.1 mL of 5 or 2.5 μg/mL antimicrobial agent were mixed and added to a penicillin cup. Each group was cultured in an incubator at 35° C. for 24 hours. The size of the inhibition circle of B. subtilis was measured. Based on the measurement results of the single antimicrobial agent group, a curve showing the size of inhibition circle versus the antimicrobial agent concentration (referred to as a standard curve) was obtained with respect to individual antimicrobial agents.

`CCn1cc(C(=O)O)c(=O)c2cc(F)c(N3CCNCC3)cc21` [NFLX, norfloxacin] was tested, and the “activity of the antimicrobial agent compared to the standard curve” value (layered group: NFLX layered on HL, OP or VC) was “lower than the standard”, the “antimicrobial activity, ranking among viscoelastic substances” value (layered group: NFLX layered on VC) was “lowest” and the “bacterial proliferation suppression activity compared to the standard curve” value (mixture group: NFLX mixed with HL, OP or VC, FIG. 5) was “lower than values of the standard curve but not so significant”.
